Target: T1, HPK1 (Homo sapiens, UniProt Q92918)
T1 construct: A HiBiT tag was introduced by CRISPR on the N terminus of HPK1 in Jurkat cells; host or cells: Jurkat cells (ATCC TIB-152), monoclonal line with CRISPR knock-in of HiBiT at the endogenous HPK1 locus
Experiment: HPK1 Cellular HiBit Degradation Assay
Assay type: cell-based
Details: HiBiT HPK1 Jurkat cells, 24 hrs; for DC50: concentration at which 50% of HPK1 was remaining, read-out: DC50 Category; for Dmax: Jurkat, maximum degradation vs DMSO vehicle control, read-out: Dmax Category
Method in brief: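 Degraders are dosed in an 11-point series (10 uM to 0.1 nM final) onto Jurkat cells carrying an N-terminal HiBiT tag on endogenous HPK1. After 24 hrs at 37° C, lysis-based HiBiT luminescence quantifies remaining HPK1 relative to vehicle, and curve fitting gives DC50 and Dmax.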

T1 sequence (Q92918 whole entry): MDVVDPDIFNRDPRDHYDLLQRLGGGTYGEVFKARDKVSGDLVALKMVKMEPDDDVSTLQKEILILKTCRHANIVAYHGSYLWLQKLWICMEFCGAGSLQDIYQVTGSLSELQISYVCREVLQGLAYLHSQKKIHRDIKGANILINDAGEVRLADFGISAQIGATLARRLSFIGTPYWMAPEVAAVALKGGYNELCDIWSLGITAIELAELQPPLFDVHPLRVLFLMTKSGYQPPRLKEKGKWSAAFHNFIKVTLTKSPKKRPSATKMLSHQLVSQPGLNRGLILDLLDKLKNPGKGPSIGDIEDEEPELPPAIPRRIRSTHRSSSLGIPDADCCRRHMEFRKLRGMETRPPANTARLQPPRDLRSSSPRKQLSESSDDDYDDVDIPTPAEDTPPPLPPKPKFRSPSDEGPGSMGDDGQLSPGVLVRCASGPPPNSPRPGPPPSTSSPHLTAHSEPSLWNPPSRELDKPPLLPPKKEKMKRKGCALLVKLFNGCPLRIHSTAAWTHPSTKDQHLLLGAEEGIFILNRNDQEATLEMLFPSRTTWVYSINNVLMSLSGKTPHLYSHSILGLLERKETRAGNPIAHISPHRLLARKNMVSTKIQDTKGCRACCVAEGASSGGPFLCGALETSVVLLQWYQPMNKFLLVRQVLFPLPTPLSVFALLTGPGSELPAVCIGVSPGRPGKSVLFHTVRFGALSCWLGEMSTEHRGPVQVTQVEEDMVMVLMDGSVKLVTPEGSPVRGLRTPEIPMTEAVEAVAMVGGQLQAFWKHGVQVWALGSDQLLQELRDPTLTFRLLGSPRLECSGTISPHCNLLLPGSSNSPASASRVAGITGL

Row | Compound | DC50 | Dmax
1 | CC(C)n1cnc2cc(-c3ccc4c(c3)N([C@H]3C[C@@H](N5CCCCC5)C3)C(=O)C43CCN(C(=O)C4CN(C(=O)C5CCN(c6ccc(C7CCC(=O)NC7=O)cn6)CC5)CCC4(F)F)CC3)nc(NC3CC3)c21 (mixture of isomers) [Example 285, (3RS)-3-(6-{4-[3-({6-[4-(cyclopropylamino)-3-(propan-2-yl)-3H-imidazo[4,5-c]pyridin-6-yl]-2-oxo-1-[(1S,3S)-3-(piperidin-1-yl)cyclobutyl]-1,2-dihydrospiro[indole-3,4′-piperidin]-1′-yl}carbonyl)-4,4-Difluoropiperidine-1-carbonyl]piperidin-1-yl}pyridin-3-yl)piperidine-2,6-dione] | 100 to 500 nM | 50 to 70%
2 | CC(C)n1cnc2cc(-c3ccc4c(c3)N([C@H]3C[C@@H](N5CCCCC5)C3)C(=O)C43CCN(C(=O)[C@@H]4C[C@H]5CC[C@@H](C4)N5C(=O)C4CCN(c5ccc(C6CCC(=O)NC6=O)cn5)CC4)CC3)nc(NC3CC3)c21 (mixture of isomers) [Example 286, (3SR)-3-(6-{4-[(1S,3R,5RS)-3-({6-[4-(cyclopropylamino)-3-(propan-2-yl)-3H-imidazo[4,5-c]pyridin-6-yl]-2-oxo-1-[(1S,3S)-3-(piperidin-1-yl)cyclobutyl]-1,2-dihydrospiro[indole-3,4′-piperidin]-1′-yl}carbonyl)-8-azabicyclo[3.2.1]octane-8-carbonyl]piperidin-1-yl}pyridin-3-yl)piperidine-2,6-dione] | < 100 nM | 70 to 85%
3 | CC(C)n1cnc2cc(-c3ccc4c(c3)N([C@H]3C[C@@H](N5CCCCC5)C3)C(=O)C43CCN(C(=O)C4CN(C(=O)C5CCN(c6ccc(C7CCC(=O)NC7=O)cn6)CC5)CCC45CCC5)CC3)nc(NC3CC3)c21 (mixture of isomers) [Example 287, (3RS)-3-(6-{4-[5-({6-[4-(cyclopropylamino)-3-(propan-2-yl)-3H-imidazo[4,5-c]pyridin-6-yl]-2-oxo-1-[(1S,3S)-3-(piperidin-1-yl)cyclobutyl]-1,2-dihydrospiro[indole-3,4′-piperidin]-1′-yl}carbonyl)-7-azaspiro[3.5]nonane-7-carbonyl]piperidin-1-yl}pyridin-3-yl)piperidine-2,6-dione] | < 100 nM | 70 to 85%
4 | CC(C)n1cnc2cc(-c3ccc4c(c3)N([C@H]3C[C@@H](N5CCCCC5)C3)C(=O)C43CCN(C(=O)C4C5COCC4CN(C(=O)C4CCN(c6ccc(C7CCC(=O)NC7=O)cn6)CC4)C5)CC3)nc(NC3CC3)c21 (mixture of isomers) [Example 288, (3RS)-3-(6-{4-[9-({6-[4-(cyclopropylamino)-3-(propan-2-yl)-3H-imidazo[4,5-c]pyridin-6-yl]-2-oxo-1-[(1S,3S)-3-(piperidin-1-yl)cyclobutyl]-1,2-dihydrospiro[indole-3,4′-piperidin]-1′-yl}carbonyl)-3-oxa-7-azabicyclo[3.3.1]nonane-7-carbonyl]piperidin-1-yl}pyridin-3-yl)piperidine-2,6-dione] | < 100 nM | > 85%
5 | CC(C)n1cnc2cc(-c3ccc4c(c3)N([C@H]3C[C@@H](N5CCCCC5)C3)C(=O)C43CCN(C(=O)C4CC5CCC(C4)N5C(=O)C4CCN(c5ccc(C6CCC(=O)NC6=O)cc5)CC4)CC3)nc(NC3CC3)c21 (mixture of isomers) [Example 289, (3RS)-3-(4-{4-[3-({6-[4-(cyclopropylamino)-3-(propan-2-yl)-3H-imidazo[4,5-c]pyridin-6-yl]-2-oxo-1-[(1S,3S)-3-(piperidin-1-yl)cyclobutyl]-1,2-dihydrospiro[indole-3,4′-piperidin]-1′-yl}carbonyl)-8-azabicyclo[3.2.1]Octane-8-carbonyl]piperidin-1-yl}phenyl)piperidine-2,6-dione] | < 100 nM | 70 to 85%
